Measurements: patent US8410094B2, “Amide compounds, their pharmaceutical compositions, their preparation method and their uses” (Shanghai Institute of Materia Medica, Chinese Academy of …, priority 2008, dated 2013)

biological target: T1, CCR5 (Homo sapiens, UniProt P51681); assay: Inhibition of CCR5: [35S]GTPγS binding assays (filtration, SPA-WGA) and calcium influx assay, 10 nM RANTES, CHO-CCR5; format: biochemical; details: class by inhibition at 30 nM or 300 nM
T1 construct: expressed in transfected cells
Experimental: CCR5 belongs to G-Protein-Coupled Receptor (GPCR) family. The developing technology of GPCR-based drugs have been well-developed, among them, the experimental techniques such as ligand-receptor binding assay, GTPγS binding assay and Ca^2+ flux assay have been widely used in drug-screening related to chemokine receptors. The inhibitory activities of the compounds according to the present invention against CCR5 are measured by three methods, i.e., [^35S]GTPγS filter binding assay, SPA-WGA-based [^35S]GTPγS binding assay and calcium influx assay. At the same time, the antiviral activities in cell of the compounds according to the present invention are evaluated by using two kinds HIV-1 subtypes: H4DA5 cell model and PBMC system virus replication model.
A. [^35S]GTPγS Binding Assay
After binding with an agonist, CCR5 experiences a conformation change such that CCR5 interacts with G protein so as to active the G protein. G protein is a tripolymer composed of α-subunit and βγ-subunit. Since the ability of α-subunit binding to GTP depends on the interaction of CCR5 with the agonist, the ability of an agonist for activating CCR5 can be reflected by determining the amount of GTP binding to α-subunit. In a GTPγS binding assay, a ^35S-labeled GTP analogue GTPγS, which can bind with an activated α-subunit without being hydrolyzed, is used to replace GTP in order for eliminating the defect that the amount of GTP binding to G protein can not exactly reflect the activation of CCR5 due to the hydrolysis of GTO by GTPase and for convenience of detection. So, α-subunit binds with GDP when CCR5 is not activated, and after the activation of CCR5, α-subunit binds with GTPγS such that GTPγS irreversible binds to α-subunit. Therefore, the amount of [^35S]-GTPγS binding to α-subunit could reflect the level of CCR5 activated by an agonist. The ability of the agonist for activating CCR5 will decrease when an antagonist is added.
Such experiment has been referred to as GTPγS filtration assay in which [^35S]-GTPγS bound with the free G protein could be separated by membrane filtration.
Alternatively, SPA (Scintillation Proximity Assay) technique can be used to detect the [^35S]-GTPγS bound to G protein, which is called SPA-WGA-based [35S]GTPγS binding assay. The principle of SPA technique is as follows. Sub-atomic particles released during the decay of radioactive atoms, for example β-ray (electron), can excite microspheres at a sufficiently close distance to emit light so as to be detected by a Scintillation Counter. In an aqueous solution, most of the energy of these rays is absorbed by the solvent, and the traveling distance of these rays is limited.
The activation of G protein by CCR5 is determined by the following experiments.
CHO (Chinese hamster ovary cell) permanent cell line expressing CCR5 (CHO-CCR5) (a cell line constructed by Shanghai Targetdrug Ltd.) was lysed with a lysis buffer (5 mM Tris-HCl, pH 7.5, 5 mM EDTA and 5 mM EGTA) and then centrifugated at 15,000×g for 10 min to obtain cell membrane. After the cell membrane was resuspended in a reaction buffer (5 mM Tris-HCl, pH 7.5, 5 mM MgCl2, 1 mM EGTA, 100 mM NaCl), the protein concentration was determined using Bioford Protein Assay Kit manufactured by Bio-Rad Laboratories Inc. Subsequently, GTPγS binding assay was performed in the reaction buffer, wherein the reaction system was 100 μL containing 10 μg membrane protein, 40 μM GDP and 0.5 nM [^35S]-GTPγS (1200 Ci/mmol). After the compound to be tested (the compound was first dissolved in DMSO and then diluted in gradient with the reaction buffer according to the specific situation, wherein the final concentration of DMSO was 1% (v/v) in the whole reaction system) was added and shaken to mix homogeneously, the reaction tube was incubated at 30° C. for 1 hour. After the reaction finished, the tube was placed on ice, and the reaction mixture was diluted with PBS to quench the reaction and filtered under reduced pressure with a GF/C filter membrane. […]

T1 sequence (P51681 whole entry): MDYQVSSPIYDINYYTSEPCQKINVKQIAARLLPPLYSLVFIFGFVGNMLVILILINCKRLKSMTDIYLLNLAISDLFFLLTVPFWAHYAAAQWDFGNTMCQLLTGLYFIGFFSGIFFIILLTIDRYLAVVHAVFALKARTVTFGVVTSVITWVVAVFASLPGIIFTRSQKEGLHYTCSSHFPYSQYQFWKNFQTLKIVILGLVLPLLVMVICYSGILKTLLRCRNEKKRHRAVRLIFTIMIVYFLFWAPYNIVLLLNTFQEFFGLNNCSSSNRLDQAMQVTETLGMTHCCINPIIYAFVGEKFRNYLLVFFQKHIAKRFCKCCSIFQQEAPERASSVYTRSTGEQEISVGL

Cc1ccc(S(=O)(=O)NC2CC3CCC(C2)N3CCCN(C(=O)OCc2ccccc2)c2ccc(C)c(Cl)c2)cc1 (stereo not drawn) [Compound 15c, 3-chloro-4-methylphenyl(3-(3-exo-(4-toluenesulfonamido)-8-azabicyclo[3.2.1]oct-8-yl)propyl)carbamic acid benzyl ester] was tested, and the “inhibition against CCR5 (class symbol in IC50 column)” value was “++ (the compound at 300 nM has an inhibition against CCR5 of more thant 50% at 300 nM)”.

same assay, conditions: compound at 30 nM; 10 nM RANTES; read-out: inhibition against CCR5 @30 nM

In order of falling inhibition at 0.03 µM:
1. CC(=O)N1CCC(C(=O)N(CCCN2C3CCC2CC(n2c(C)nnc2C(C)C)C3)c2ccc(C)c(Cl)c2)CC1 (stereo not drawn) [Compound 11, 1-acetyl-N-(3-chloro-4-methylphenyl)-N-(3-(3-exo-(3-isopropyl-5-methyl-4-hydro-1,2,4-triazol-4-yl)-8-azabicyclo[3.2.1]oct-8-yl)propyl)-4-piperidinylcarboxamide]  48.8%
2. CC(=O)N1CCC(C(=O)N(CCCN2C3CCC2CC(NC(=O)c2ccc(C(F)(F)F)cc2)C3)c2ccc(C)c(Cl)c2)CC1 (stereo not drawn) [Compound 7u, 1-acetyl-N-(3-chloro-4-methylphenyl)-N-(3-(3-exo-p-trifluoromethylbenzoylamido-8-azabicyclo[3.2.1]oct-8-yl)propyl)-4-piperidinylcarboxamide]  26.5%
3. CC(=O)N1CCC(C(=O)N(CCCN2C3CCC2CC(NC(=O)CCc2cccnc2)C3)c2ccc(C)c(Cl)c2)CC1 (stereo not drawn) [Compound 7v, 1-acetyl-N-(3-chloro-4-methylphenyl)-N-(3-(3-exo-(3-(3-pyridyl)propionamido)-8-azabicyclo[3.2.1]oct-8-yl)propyl)-4-piperidinylcarboxamide]  17.5%

same assay, conditions: compound at 300 nM; 10 nM RANTES; read-out: inhibition against CCR5 @300 nM

In order of rising inhibition at 0.3 µM:
1. CC(=O)N1CCC(C(=O)N(CCCN2C3CCC2CC(NC(=O)CCc2cccnc2)C3)c2ccc(C)c(Cl)c2)CC1 (stereo not drawn) [Compound 7v, 1-acetyl-N-(3-chloro-4-methylphenyl)-N-(3-(3-exo-(3-(3-pyridyl)propionamido)-8-azabicyclo[3.2.1]oct-8-yl)propyl)-4-piperidinylcarboxamide]  76.7%
2. CC(=O)N1CCC(C(=O)N(CCCN2C3CCC2CC(NC(=O)c2ccc(C(F)(F)F)cc2)C3)c2ccc(C)c(Cl)c2)CC1 (stereo not drawn) [Compound 7u, 1-acetyl-N-(3-chloro-4-methylphenyl)-N-(3-(3-exo-p-trifluoromethylbenzoylamido-8-azabicyclo[3.2.1]oct-8-yl)propyl)-4-piperidinylcarboxamide]  96.3%
3. CC(=O)N1CCC(C(=O)N(CCCN2C3CCC2CC(n2c(C)nnc2C(C)C)C3)c2ccc(C)c(Cl)c2)CC1 (stereo not drawn) [Compound 11, 1-acetyl-N-(3-chloro-4-methylphenyl)-N-(3-(3-exo-(3-isopropyl-5-methyl-4-hydro-1,2,4-triazol-4-yl)-8-azabicyclo[3.2.1]oct-8-yl)propyl)-4-piperidinylcarboxamide]  98.4%

same assay, conditions: inhibition of GTPγS binding induced by 10 nM RANTES, CHO-CCR5

In order of falling IC50:
1. CC(=O)N1CCC(C(=O)N(CCCN2C3CCC2CC(NC(=O)CC24CC5CC(CC(C5)C2)C4)C3)c2ccc(C)c(Cl)c2)CC1 (stereo not drawn) [Compound 7e, 1-acetyl-N-(3-chloro-4-methylphenyl)-N-(3-(3-exo-(2-(1-adamantyl)acetamido)-8-azabicyclo[3.2.1]oct-8-yl)propyl)-4-piperidinylcarboxamide]  209 nM
2. CC(=O)N1CCC(C(=O)N(CCCN2[C@@H]3CC[C@H]2C[C@H](NC(=O)Cc2ccc(C(F)(F)F)cc2)C3)c2ccc(C)c(Cl)c2)CC1 [Compound 7d, 1-acetyl-N-(3-chloro-4-methylphenyl)-N-(3-(3-exo-(2-(4-(trifluoromethyl)phenyl)acetamido)-8-azabicyclo[3.2.1]oct-8-yl)propyl)-4-piperidinylcarboxamide]  49.4 nM
3. CC(=O)N1CCC(C(=O)N(CCCN2[C@@H]3CC[C@H]2C[C@H](NC(=O)Cc2ccc(O)cc2)C3)c2ccc(C)c(Cl)c2)CC1 [Compound 7g, 1-acetyl-N-(3-chloro-4-methylphenyl)-N-(3-(3-exo-(2-(4-hydroxyphenyl)acetamido)-8-azabicyclo[3.2.1]oct-8-yl)propyl)-4-piperidinylcarboxamide]  48.2 nM
4. CC(=O)N1CCC(C(=O)N(CCCN2[C@@H]3CC[C@H]2C[C@H](NC(=O)Cc2ccc(F)cc2)C3)c2ccc(C)c(Cl)c2)CC1 [Compound 7b, 1-acetyl-N-(3-chloro-4-methylphenyl)-N-(3-(3-exo-(2-(4-fluorphenyl)acetamido)-8-azabicyclo[3.2.1]oct-8-yl)propyl)-4-piperidinylcarboxamide]  31.1 nM
5. CC(=O)N1CCC(C(=O)N(CCCN2[C@@H]3CC[C@H]2C[C@H](NS(C)(=O)=O)C3)c2ccc(C)c(Cl)c2)CC1 [Compound 9a, 1-acetyl-N-(3-chloro-4-methylphenyl)-N-(3-(3-exo-(methylsulfonyl amido)-8-azabicyclo[3.2.1]oct-8-yl)propyl)-4-piperidinylcarboxamide]  20.1 nM
6. CC(=O)N1CCC(C(=O)N(CCCN2[C@@H]3CC[C@H]2C[C@H](NC(=O)Cc2ccc([N+](=O)[O-])cc2)C3)c2ccc(C)c(Cl)c2)CC1 [Compound 7f, 1-acetyl-N-(3-chloro-4-methylphenyl)-N-(3-(3-exo-(2-(4-nitrophenyl)acetamido)-8-azabicyclo[3.2.1]oct-8-yl)propyl)-4-piperidinylcarboxamide]  20 nM
7. CC(=O)N1CCC(C(=O)N(CCCN2[C@@H]3CC[C@H]2C[C@H](NC(=O)COc2ccc4ccccc4c2)C3)c2ccc(C)c(Cl)c2)CC1 [Compound 7w, 1-acetyl-N-(3-chloro-4-methylphenyl)-N-(3-(3-exo-(2-(2-naphthoxy)acetamido)-8-azabicyclo[3.2.1]oct-8-yl)propyl)-4-piperidinylcarboxamide]  18.1 nM
8. CC(=O)N1CCC(C(=O)N(CCCN2[C@@H]3CC[C@H]2C[C@H](NC(=O)Cc2ccc(Cl)cc2)C3)c2ccc(C)c(Cl)c2)CC1 [Compound 7c, 1-acetyl-N-(3-chloro-4-methylphenyl)-N-(3-(3-exo-(2-(4-chlorphenyl)acetamido)-8-azabicyclo[3.2.1]oct-8-yl)propyl)-4-piperidinylcarboxamide]  15.1 nM
9. CC(=O)N1CCC(C(=O)N(CCCN2[C@@H]3CC[C@H]2C[C@H](NC(=O)Cc2ccc(S(=O)(=O)NC(C)(C)C)cc2)C3)c2ccc(C)c(Cl)c2)CC1 [Compound 7m, 1-acetyl-N-(3-(3-exo-(2-(4-(N-tert-butylsulphonyl)phenyl)acetamido)-8-azabicyclo[3.2.1]oct-8-yl)propyl)-N-(3-chloro-4-methylphenyl)-4-piperidinylcarboxamide]  7.54 nM
10. CC(=O)N1CCC(C(=O)N(CCCN2[C@@H]3CC[C@H]2C[C@H](NS(=O)(=O)Cc2ccccc2)C3)c2ccc(C)c(Cl)c2)CC1 [Compound 9e, 1-acetyl-N-(3-chloro-4-methylphenyl)-N-(3-(3-exo-(phenylmethylsulfonylamido)-8-azabicyclo[3.2.1]oct-8-yl)propyl)-4-piperidinylcarboxamide]  7.4 nM
11. CC(=O)N1CCC(C(=O)N(CCCN2[C@@H]3CC[C@H]2C[C@H](NC(=O)Cc2ccc(Cl)c(Cl)c2)C3)c2ccc(C)c(Cl)c2)CC1 [Compound 7h, 1-acetyl-N-(3-chloro-4-methylphenyl)-N-(3-(3-exo-(2-(3,4-dichlorophenyl)acetamido)-8-azabicyclo[3.2.1]oct-8-yl)propyl)-4-piperidinylcarboxamide]  4.89 nM
12. CC(=O)N1CCC(C(=O)N(CCCN2[C@@H]3CC[C@H]2C[C@H](NC(=O)Cc2ccc(S(=O)(=O)N4CCOCC4)cc2)C3)c2ccc(C)c(Cl)c2)CC1 [Compound 7l, 1-acetyl-N-(3-chloro-4-methylphenyl)-N-(3-(3-exo-(2-(4-(morpholinosulfonyl)phenyl)acetamido)-8-azabicyclo[3.2.1]oct-8-yl)propyl)-4-piperidinylcarboxamide]  3.46 nM
13. CC(=O)N1CCC(C(=O)N(CCCN2[C@@H]3CC[C@H]2C[C@H](NC(=O)Cc2ccc(S(=O)(=O)N(C)C)cc2)C3)c2ccc(C)c(Cl)c2)CC1 [Compound 7j, 1-acetyl-N-(3-chloro-4-methylphenyl)-N-(3-(3-exo-(2-(4-(N,N-dimethylsulphonyl)phenyl)acetamido)-8-azadicyclo[3.2.1]oct-8-yl)propyl)-4-piperidinylcarboxamide]  3.08 nM
14. CC(=O)N1CCC(C(=O)N(CCCN2[C@@H]3CC[C@H]2C[C@H](NS(=O)(=O)c2cccc([N+](=O)[O-])c2)C3)c2ccc(C)c(Cl)c2)CC1 [Compound 9d, 1-acetyl-N-(3-chloro-4-methylphenyl)-N-(3-(3-exo-(3-nitrophenylsulfamide)-8-azabicyclo[3.2.1]oct-8-yl)propyl)-4-piperidinylcarboxamide]  2.59 nM
